# Assays:
# [1] = In vitro microsomal stability, dog; type: in vitro ADME; conditions: Dog (Beagle), Male
# Method: (§1) In vitro metabolic stability studies were performed to determine hepatic stability in vivo. CFMQ was incubated in liver microsomal preparations from mouse, rat, dog, mini-pig, and humans, as well as an additional study with monkey and human. CFMQ was incubated with human and animal liver microsomes at 0.3 mg/mL at 37° C. for 30 or 60 minutes. Additional reference compounds were incubated as controls. Following incubation, samples were analyzed by HPLC-MS/MS.
# [2] = Extrapolation of human oral dose by allometric scaling and pharmacokinetic simulation; conditions: human equivalent dose of 0.8 mg/kg
# Method: A pharmacokinetic extrapolation for a human oral dose was performed using allometric scaling of clearance and volume of distribution. The human pharmacokinetic values were extrapolated from in vivo mouse, rat, dog and monkey pharmacokinetic studies. […] This model was based on the assumption that all of the clearance pathways in the human were captured in the pre-clinical species.
# A3 (h) = molecular target: T1, A3 (h) (Homo sapiens, UniProt P0DMS8); assay: Off-target receptor binding: A3
# T1 construct: expressed in transfected cells; host or cells: CHO or HEK 293 (not assigned per receptor)
# T1 sequence (P0DMS8 1-318): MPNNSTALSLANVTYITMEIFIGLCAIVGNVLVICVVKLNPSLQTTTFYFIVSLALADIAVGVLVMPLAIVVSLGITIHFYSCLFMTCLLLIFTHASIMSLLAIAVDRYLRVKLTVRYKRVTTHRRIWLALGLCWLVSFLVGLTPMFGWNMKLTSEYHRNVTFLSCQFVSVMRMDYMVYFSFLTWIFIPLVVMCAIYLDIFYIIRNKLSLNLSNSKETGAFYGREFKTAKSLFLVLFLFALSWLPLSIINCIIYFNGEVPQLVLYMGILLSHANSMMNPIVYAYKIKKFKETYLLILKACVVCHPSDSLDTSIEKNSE
# Method: (§2) To determine the affinity to the B2-bradykinin receptor, CFMQ was compared to a diverse set of receptors and reference agents in an in vitro assay using cells from rat heart, urinary bladder, cerebral cortex, as well as human recombinant cells (CHO and HEK 293) and other cell lines. Each assay included a ligand at a specific concentration (concentration ranging from 0.007-10 nM), in addition to a non-specific ligand (concentration ranging from […]) for incubation periods ranging from 15 minutes to 6 hours at 4°-37° C. The specific binding to the receptors was defined as the difference between the total binding and the nonspecific binding, determined in the presence of an excess of unlabeled CFMQ. The concentration causing a half-maximal inhibition of control specific binding (IC50 values) and inhibition constants (Ki) were determined, and each reference compound was within the accepted limits of the historic average (±0.5 log units).
# V1a (h) = molecular target: T2, V1a (h) (Homo sapiens, UniProt P37288); assay: Off-target receptor binding: V1a
# T2 construct: expressed in transfected cells; host or cells: CHO or HEK 293 (not assigned per receptor)
# T2 sequence (P37288 whole entry): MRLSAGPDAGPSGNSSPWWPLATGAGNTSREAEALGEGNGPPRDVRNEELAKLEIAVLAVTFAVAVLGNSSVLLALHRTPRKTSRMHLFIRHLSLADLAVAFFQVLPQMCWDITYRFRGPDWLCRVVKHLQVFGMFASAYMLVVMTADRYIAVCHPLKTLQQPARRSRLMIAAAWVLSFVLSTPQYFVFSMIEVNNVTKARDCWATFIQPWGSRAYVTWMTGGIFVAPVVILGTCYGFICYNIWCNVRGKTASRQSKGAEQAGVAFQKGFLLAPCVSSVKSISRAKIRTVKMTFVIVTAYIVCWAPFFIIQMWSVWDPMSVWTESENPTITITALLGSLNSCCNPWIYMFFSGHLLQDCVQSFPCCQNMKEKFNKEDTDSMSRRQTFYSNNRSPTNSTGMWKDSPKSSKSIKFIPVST
# Method: as §2
# [3] = molecular target: T3, human B2-bradykinin receptor (Homo sapiens, UniProt P30411); assay: Calcium mobilization assay in human fibroblast (HF15) cells; type: cell-based; design: endogenous in cells; host or cells: HF15 human fibroblasts; conditions: 25 minutes pre-incubation at 25° C., read-out: IC50, inhibition of bradykinin-induced calcium mobilization
# T3 sequence (P30411 1-391): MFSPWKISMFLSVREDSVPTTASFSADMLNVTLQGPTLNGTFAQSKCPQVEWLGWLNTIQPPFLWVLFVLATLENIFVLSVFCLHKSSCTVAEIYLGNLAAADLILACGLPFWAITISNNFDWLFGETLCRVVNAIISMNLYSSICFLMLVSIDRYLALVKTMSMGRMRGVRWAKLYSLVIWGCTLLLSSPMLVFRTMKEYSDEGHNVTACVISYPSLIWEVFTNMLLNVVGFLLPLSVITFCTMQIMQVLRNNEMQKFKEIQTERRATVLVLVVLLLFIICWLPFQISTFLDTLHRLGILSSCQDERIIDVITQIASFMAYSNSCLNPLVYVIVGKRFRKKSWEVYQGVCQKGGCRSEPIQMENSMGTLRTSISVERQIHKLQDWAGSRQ
# Method: CFMQ was formulated as a 5 nM stock solution in 100% DMSO and serially diluted to 0.04, 0.12, 0.37, 1.11, 3.33, 10 and 30 nM. Human fibroblast (HF15) cells, which express the human B2R were loaded with 100 μL calcium dye solution containing 2.5 mM probenicide and were then pre-incubated with CFMQ for 25 minutes at 25° C. The inhibition effect of CFMQ on bradykinin-mediated calcium mobilization was tested in this system by emission of fluorescence signals, using the height of the resulting peak over the baseline value (relative fluorescence units [RFU] max-min). The percent inhibition for each concentration was used for curve fit and IC50 calculation.
# [4] = In vitro microsomal stability, human; type: in vitro ADME; conditions: Mix
# Method: as §1
# [5] = In vitro microsomal stability, monkey; type: in vitro ADME; conditions: Monkey (Cynomolgus), Male
# Method: as §1
# [6] = In vitro microsomal stability, mini-pig; type: in vitro ADME; conditions: Mini-Pig (Gotting), Male
# Method: as §1
# [7] = Pharmacokinetics, single oral gavage, Yucatan mini-pig; type: in vivo, female Yucatan Miniature Swine; conditions: PO 10 mg/kg
# Method: CFMQ (HGT3711) was administered to female Yucatan Miniature Swine (mini-pig; n=3) by a single oral gavage at 10 mg/kg (concentration 2 mg/mL) at a dose volume of […]. This study utilized the spray-dried dispersion (SDD) (50; 50 with polymer; HPMCAS) formulation of CFMQ (HGT3711) (see below). Blood samples were taken via jugular or other suitable vein puncture prior to administration and at 0.083 (5 min), 0.25 (15 min), 0.50 (30 min), 1, 2, 4, 8, 12 and 24 hours post dose. Plasma concentrations of CFMQ (HGT3711) were determined by LC-MS/MS.
# [8] = female, Yucatan, minipig, plasma
compound,measurement,setting,value
"Cc1cc(Cl)c(COc2cccc3c(-n4cc(F)cn4)cc(C)nc23)c(Cn2cccc(C#N)c2=O)n1 [CFMQ, 1-((4-Chloro-3-(((4-(4-fluoro-1H-pyrazol-1-yl)-2-methylquinolin-8-yl)oxy)methyl)-6-methylpyridin-2-yl)methyl)-2-oxo-1,2-dihydropyridine-3-carbonitrile]",% Remaining [30 minutes],[1]; 30 minutes,66%
same,% Remaining [60 minutes],[1]; 60 minutes,45%
same,time plasma levels stay above the predicted efficacious levels,[2]; bioavailability 25%,greater than 5 hours
same,time plasma levels stay above the predicted efficacious levels,[2]; bioavailability 50%,> 10 h
same,time plasma levels stay above the predicted efficacious levels,[2]; bioavailability 75%,> 12 h
same,IC50,A3 (h),7.6 µM
same,Ki,A3 (h),4.5 µM
same,nH,A3 (h),1.4
same,inhibition at 10 µM,A3 (h); CFMQ at 10 μM,53%
same,IC50,V1a (h),1.5 µM
same,Ki,V1a (h),9.4 µM
same,nH,V1a (h),1.3
same,inhibition at 10 µM,V1a (h); CFMQ at 10 μM,51%
same,IC50,[3],0.00297 µM
same,% Remaining [30 minutes],[4]; 30 minutes,70-91%
same,% Remaining [60 minutes],[4]; 60 minutes,50-85%
same,% Remaining [30 minutes],[5]; 30 minutes,32%
same,% Remaining [60 minutes],[5]; 60 minutes,7%
same,% Remaining [30 minutes],[6]; 30 minutes,74%
same,% Remaining [60 minutes],[6]; 60 minutes,58%
same,clinical observations,[7]; mini-pig,no abnormal clinical observations
same,AUC(0-inf),[7]; [8],11100 ng·h/mL
same,AUC(0-t),[7]; [8],10600 ng·h/mL
same,half-life,[7]; [8],57 h
same,concentration at 4 hr,"[7]; female, Yucatan, pig (miniature swine), plasma, 4.0 hr, read-out: Average Concentration of HGT3711",1150 ng/mL
same,concentration at 8 hr,"[7]; female, Yucatan, pig (miniature swine), plasma, 8.0 hr, read-out: Average Concentration of HGT3711",284 ng/mL
same,concentration at 12 hr,"[7]; female, Yucatan, pig (miniature swine), plasma, 12 hr, read-out: Average Concentration of HGT3711",112 ng/mL
same,concentration at 24 hr,"[7]; female, Yucatan, pig (miniature swine), plasma, 24 hr, read-out: Average Concentration of HGT3711",14.2 ng/mL
same,concentration at 0 hr,"[7]; female, Yucatan, pig (minipig), plasma, 0 hr, read-out: Average Concentration of HGT3711",0 ng/mL
same,concentration at 0.25 hr,"[7]; female, Yucatan, pig (minipig), plasma, 0.25 hr, read-out: Average Concentration of HGT3711",80 ng/mL
same,concentration at 0.5 hr,"[7]; female, Yucatan, pig (minipig), plasma, 0.5 hr, read-out: Average Concentration of HGT3711",596 ng/mL
same,concentration at 1 hr,"[7]; female, Yucatan, pig (minipig), plasma, 1.0 hr, read-out: Average Concentration of HGT3711",1560 ng/mL
same,concentration at 2 hr,"[7]; female, Yucatan, pig (minipig), plasma, 2.0 hr, read-out: Average Concentration of HGT3711",2060 ng/mL

# Reference: patent publication US20160030416A1, “METHODS OF TREATING B2-BRADYKININ RECEPTOR MEDIATED ANGIOEDEMA” (SHIRE HUMAN GENETIC THERAPIES, INC., priority 2013, published 2016)
